# Source: ChEMBL document CHEMBL3779843, “Discovery of a Potent Class I Protein Arginine Methyltransferase Fragment Inhibitor” (J Med Chem, 2016)
# Calls of active or inactive are those of the source. The calls are words filed in the database; no cut-off is given here.
# Assays:
# [1] = biological target: T1, Histone-arginine methyltransferase CARM1 (Homo sapiens, UniProt Q86X55); test: Inhibition of GST-tagged CARM1 (unknown origin) using tritiated S-adenosylmethionine as substrate at 6 nM by methylation- based filter assay
# T1 sequence (Q86X55 whole entry): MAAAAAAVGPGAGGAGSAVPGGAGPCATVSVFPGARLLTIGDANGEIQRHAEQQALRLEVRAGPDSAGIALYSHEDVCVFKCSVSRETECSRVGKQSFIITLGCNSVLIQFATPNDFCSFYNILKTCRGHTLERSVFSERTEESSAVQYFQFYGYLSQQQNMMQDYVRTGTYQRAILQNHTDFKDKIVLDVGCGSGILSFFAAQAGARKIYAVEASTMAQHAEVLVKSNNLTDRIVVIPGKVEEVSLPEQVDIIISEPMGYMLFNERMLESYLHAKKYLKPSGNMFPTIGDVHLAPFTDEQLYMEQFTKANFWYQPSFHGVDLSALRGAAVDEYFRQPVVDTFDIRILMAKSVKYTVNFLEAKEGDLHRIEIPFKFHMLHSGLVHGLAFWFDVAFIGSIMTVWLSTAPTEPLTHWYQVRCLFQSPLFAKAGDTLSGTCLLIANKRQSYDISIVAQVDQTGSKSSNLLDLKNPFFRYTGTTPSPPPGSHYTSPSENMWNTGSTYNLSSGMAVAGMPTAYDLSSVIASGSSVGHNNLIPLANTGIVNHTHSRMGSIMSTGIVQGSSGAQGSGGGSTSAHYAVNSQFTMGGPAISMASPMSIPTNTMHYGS
# [2] = biological target: T2, Protein arginine N-methyltransferase 7 (Homo sapiens, UniProt Q9NVM4); test: Inhibition of human PRMT7 using 24 residues of biotin labelled histone4 substrate and tritiated 3H-S-adenosylmethionine by scintillation proximity assay
# T2 sequence (Q9NVM4 whole entry): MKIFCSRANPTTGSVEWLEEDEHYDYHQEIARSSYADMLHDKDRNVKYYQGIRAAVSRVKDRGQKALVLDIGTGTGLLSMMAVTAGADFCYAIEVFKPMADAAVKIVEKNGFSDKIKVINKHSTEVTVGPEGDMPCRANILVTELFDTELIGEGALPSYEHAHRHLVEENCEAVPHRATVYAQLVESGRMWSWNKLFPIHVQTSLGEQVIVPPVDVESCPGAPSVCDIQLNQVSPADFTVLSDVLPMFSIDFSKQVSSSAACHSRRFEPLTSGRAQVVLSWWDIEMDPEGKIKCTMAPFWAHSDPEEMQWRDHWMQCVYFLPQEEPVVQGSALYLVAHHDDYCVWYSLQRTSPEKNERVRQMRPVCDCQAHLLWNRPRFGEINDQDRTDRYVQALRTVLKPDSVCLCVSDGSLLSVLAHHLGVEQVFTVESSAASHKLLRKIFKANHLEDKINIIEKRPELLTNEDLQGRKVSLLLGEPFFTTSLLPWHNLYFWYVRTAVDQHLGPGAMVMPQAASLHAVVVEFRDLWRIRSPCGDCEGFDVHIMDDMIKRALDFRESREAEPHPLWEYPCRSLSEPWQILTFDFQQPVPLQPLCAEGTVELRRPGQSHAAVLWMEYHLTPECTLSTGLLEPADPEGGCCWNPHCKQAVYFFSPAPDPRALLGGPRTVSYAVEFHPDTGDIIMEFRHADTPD
# [3] = biological target: Protein arginine N-methyltransferase 6 (Homo sapiens, UniProt Q96LA8, L267E); test: Inhibition of PRMT6 L267E mutant (unknown origin) using 24 residues of biotin labelled histone4 substrate and tritiated 3H-S-adenosylmethionine by scintillation proximity assay
# Sequence of Protein arginine N-methyltransferase 6 (Homo sapiens, UniProt Q96LA8, L267E) (Q96LA8 whole entry L267E): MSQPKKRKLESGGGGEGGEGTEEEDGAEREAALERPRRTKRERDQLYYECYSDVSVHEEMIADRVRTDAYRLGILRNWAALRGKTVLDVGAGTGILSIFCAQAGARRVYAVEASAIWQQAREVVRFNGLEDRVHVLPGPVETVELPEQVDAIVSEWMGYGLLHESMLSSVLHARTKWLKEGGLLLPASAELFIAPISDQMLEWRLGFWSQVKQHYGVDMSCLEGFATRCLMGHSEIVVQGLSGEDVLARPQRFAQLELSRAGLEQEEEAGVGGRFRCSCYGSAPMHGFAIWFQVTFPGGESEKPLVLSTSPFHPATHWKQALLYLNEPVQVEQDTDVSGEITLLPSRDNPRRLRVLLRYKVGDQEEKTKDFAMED
# [4] = biological target: T3, Protein arginine N-methyltransferase 6 (Homo sapiens, UniProt Q96LA8); test: Binding affinity to Inhibition of N-terminal hexa-His tagged human PRMT6 expressed in Sf9 cells by ITC method
# T3 sequence (Q96LA8 whole entry): as the sequence (Q96LA8 whole entry L267E) above, with E267L counted along it
# [5] = biological target: T1, Histone-arginine methyltransferase CARM1; test: (§1) Inhibition of CARM1 (unknown origin) using 24 residues of biotin labelled histone4 substrate and tritiated 3H-S-adenosylmethionine by scintillation proximity assay
# [6] = biological target: T1, Histone-arginine methyltransferase CARM1; test: Inhibition of human PRMT4 using 24 residues of biotin labelled histone4 substrate and tritiated 3H-S-adenosylmethionine by scintillation proximity assay
# [7] = biological target: Protein arginine N-methyltransferase 5 (Homo sapiens, UniProt O14744); test: Inhibition of human PRMT5 using 24 residues of biotin labelled histone4 substrate and tritiated 3H-S-adenosylmethionine by scintillation proximity assay
# Sequence of Protein arginine N-methyltransferase 5 (O14744 whole entry): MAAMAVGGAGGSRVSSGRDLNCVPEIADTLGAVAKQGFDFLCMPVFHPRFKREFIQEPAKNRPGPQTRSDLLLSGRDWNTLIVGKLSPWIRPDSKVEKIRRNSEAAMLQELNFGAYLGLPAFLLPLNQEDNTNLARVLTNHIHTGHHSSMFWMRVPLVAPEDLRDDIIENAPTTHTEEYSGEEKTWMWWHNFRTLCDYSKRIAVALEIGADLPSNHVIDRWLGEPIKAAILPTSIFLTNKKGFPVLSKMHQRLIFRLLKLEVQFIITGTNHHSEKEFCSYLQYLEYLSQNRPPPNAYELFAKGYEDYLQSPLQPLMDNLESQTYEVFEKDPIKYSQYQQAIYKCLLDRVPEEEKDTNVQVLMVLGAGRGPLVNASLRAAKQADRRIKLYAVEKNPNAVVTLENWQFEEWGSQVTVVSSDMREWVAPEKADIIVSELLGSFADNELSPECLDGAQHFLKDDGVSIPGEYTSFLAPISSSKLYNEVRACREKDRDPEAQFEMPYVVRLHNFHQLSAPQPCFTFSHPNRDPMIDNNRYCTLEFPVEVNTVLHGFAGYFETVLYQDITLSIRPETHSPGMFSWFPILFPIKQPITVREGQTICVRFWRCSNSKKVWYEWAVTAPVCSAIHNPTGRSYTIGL
# [8] = biological target: T3, Protein arginine N-methyltransferase 6; test: Inhibition of N-terminal hexa-His tagged human PRMT6 expressed in Sf9 cells using 24 residues of biotin labelled histone4 substrate and tritiated 3H-S-adenosylmethionine by scintillation proximity assay
# [9] = biological target: Protein arginine N-methyltransferase 3 (Homo sapiens, UniProt O60678); test: Inhibition of human PRMT3 using 24 residues of biotin labelled histone4 substrate and tritiated 3H-S-adenosylmethionine by scintillation proximity assay
# Sequence of Protein arginine N-methyltransferase 3 (O60678 whole entry): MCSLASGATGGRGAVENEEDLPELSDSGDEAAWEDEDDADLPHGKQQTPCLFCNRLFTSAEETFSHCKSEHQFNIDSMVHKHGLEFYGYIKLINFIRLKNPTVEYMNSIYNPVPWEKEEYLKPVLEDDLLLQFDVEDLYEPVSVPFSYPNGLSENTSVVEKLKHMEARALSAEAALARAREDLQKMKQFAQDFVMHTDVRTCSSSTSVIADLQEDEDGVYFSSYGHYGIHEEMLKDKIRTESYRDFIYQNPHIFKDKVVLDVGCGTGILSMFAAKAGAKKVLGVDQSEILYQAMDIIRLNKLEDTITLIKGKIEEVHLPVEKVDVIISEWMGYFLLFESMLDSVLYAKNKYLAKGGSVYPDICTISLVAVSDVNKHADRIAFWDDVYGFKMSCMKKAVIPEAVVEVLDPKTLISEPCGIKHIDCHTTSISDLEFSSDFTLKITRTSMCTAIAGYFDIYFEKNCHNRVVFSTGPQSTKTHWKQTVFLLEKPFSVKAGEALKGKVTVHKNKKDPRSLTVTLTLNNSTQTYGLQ
# [10] = biological target: Protein arginine N-methyltransferase 8 (Homo sapiens, UniProt Q9NR22); test: Inhibition of human PRMT8 using 24 residues of biotin labelled histone4 substrate and tritiated 3H-S-adenosylmethionine by scintillation proximity assay
# Sequence of Protein arginine N-methyltransferase 8 (Q9NR22 whole entry): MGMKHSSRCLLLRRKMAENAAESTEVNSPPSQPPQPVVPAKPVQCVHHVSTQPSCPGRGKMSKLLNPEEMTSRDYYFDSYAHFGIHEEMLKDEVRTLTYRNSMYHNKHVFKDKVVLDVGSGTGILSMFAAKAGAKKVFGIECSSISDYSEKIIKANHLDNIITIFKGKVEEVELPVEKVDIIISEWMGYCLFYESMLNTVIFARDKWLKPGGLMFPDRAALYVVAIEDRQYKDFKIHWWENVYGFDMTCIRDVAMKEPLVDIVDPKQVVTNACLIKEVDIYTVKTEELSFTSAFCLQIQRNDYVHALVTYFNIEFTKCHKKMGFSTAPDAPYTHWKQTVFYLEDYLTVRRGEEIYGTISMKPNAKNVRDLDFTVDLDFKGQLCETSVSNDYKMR
# [11] = biological target: T3, Protein arginine N-methyltransferase 6; test: Inhibition of FLAG-tagged human PRMT6 expressed in HEK293 cells assessed as reduction in H3R2 global methylation incubated for 20 hrs by Western blot method; assay type: cell-based
# [12] = biological target: Protein arginine N-methyltransferase 1 (Homo sapiens, UniProt Q99873); test: Inhibition of human PRMT1 using 24 residues of biotin labelled histone4 substrate and tritiated 3H-S-adenosylmethionine by scintillation proximity assay
# Sequence of Protein arginine N-methyltransferase 1 (Q99873 whole entry): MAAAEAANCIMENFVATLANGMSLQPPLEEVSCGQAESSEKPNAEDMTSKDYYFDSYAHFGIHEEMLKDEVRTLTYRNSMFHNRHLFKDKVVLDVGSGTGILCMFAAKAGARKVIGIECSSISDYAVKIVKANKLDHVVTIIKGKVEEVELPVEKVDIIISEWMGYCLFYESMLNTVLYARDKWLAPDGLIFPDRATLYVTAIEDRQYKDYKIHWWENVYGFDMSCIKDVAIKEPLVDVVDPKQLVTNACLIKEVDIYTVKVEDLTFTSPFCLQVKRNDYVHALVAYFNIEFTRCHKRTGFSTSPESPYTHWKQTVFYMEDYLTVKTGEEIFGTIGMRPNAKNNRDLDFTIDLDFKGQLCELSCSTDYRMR
# [13] = biological target: T4, Histone-arginine methyltransferase CARM1 (Homo sapiens) (UniProt Q86X55); test: as §1
# T4 sequence (whole entry): T1 sequence (Q86X55 whole entry)
IC50 [2],IC50 [5],IC50 [6],IC50 [7],IC50 [8],IC50 [9],IC50 [10],Compound,other results
Not Active,105 µM,105 µM,Not Active,> 200 µM,> 1000 µM,> 200 µM,CCNC(=O)[C@@H](C)N,IC50 [12]: > 1000 µM
,,,,430 µM,,,Nc1ccc(S(=O)(=O)Nc2nccs2)cc1 [SULFATHIAZOLE],
Not Active,3 µM,3 µM,Not Active,5 µM,35 µM,7 µM,CNCCN(C)C,
,,,,146 µM,,,CNCc1cccc(-c2ccco2)c1,

# More lines, now with the values behind:
Compound,IC50 [2],IC50 [5],IC50 [6],IC50 [7],IC50 [8],IC50 [9],IC50 [10],other results
C[C@@H](N)C(=O)NCc1cccc(-n2nc(C(F)(F)F)cc2-c2nnc(-c3cccc4[nH]ccc34)o2)c1,,,,,,,,IC50 [1]: 0.027 µM
NCCN1CCC(Cc2ccccc2)CC1,Not Active,1 µM,1 µM,Not Active,0.23 µM,19 µM,2.1 µM,IC50 [3]: 0.39 µM; Kd [4]: 0.97 µM; IC50 [11]: 21 µM
CNCc1cccc(-c2cccnc2)c1,,,,,104 µM,,,
Cc1nc(N)sc1-n1ccc(C(F)(F)F)n1,,,,,46 µM,,,
CNCCN1CCC(c2ccc3[nH]c(-c4ccccc4OC)c(Cl)c3c2)CC1,,,,,,,,inhibition [13]: Active
CNCCN1CCC(C)CC1,Not Active,0.2 µM,0.2 µM,Not Active,,> 500 µM,15 µM,IC50 [12]: 48 µM
